The source of these data is US8906925B2, “Pyrido[4,3-B]indoles containing rigid moieties” (Medivation Technologies, Inc., priority 2008, dated 2014).

One experiment concerns the target histamine receptor H1 (Homo sapiens, UniProt P35367). Nature of the experiment: Histamine H1 radioligand binding ([3H]Pyrilamine). Conditions: for inhibition at 1 µM: read-out: Histamine Binding (1 μM) H1, percent inhibition of specific binding, 1 μM. The essentials:
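Values are percent inhibition of specific [3H]pyrilamine (1.2 nM) binding with compounds at ≤1 μM (1% DMSO vehicle); 180 min incubation at 25 °C, pH 7.4 Tris buffer, on CHO-expressed human H1 receptor; 1 μM pyrilamine defined nonspecific binding, bound ligand counted after filtration.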

The target of experiment [1] is human dopamine D2L receptor (Homo sapiens, UniProt P14416). Kind of experiment: Dopamine D2L radioligand binding ([3H]Spiperone). To be noted: compound at 1 μM; for Inhibition of ligand binding, Dopamine D2L: 1 µM. The text has this: Non-specific binding was estimated in the presence of […] Haloperidol. Receptor proteins were filtered and washed, the filters were then counted to determine [^3H]Spiperone specifically bound. […] Biochemical assay results are presented as the percent inhibition of specific binding in Table 9.

Experiment [2] has as its target T1, human recombinant serotonin (5-Hydroxytryptamine) 5-HT2C receptor (Homo sapiens, UniProt P28335).
T1 construct: expressed in transfected cells; host or cells: Chinese hamster ovary (CHO-K1) cells
T1 sequence (P28335 33-458): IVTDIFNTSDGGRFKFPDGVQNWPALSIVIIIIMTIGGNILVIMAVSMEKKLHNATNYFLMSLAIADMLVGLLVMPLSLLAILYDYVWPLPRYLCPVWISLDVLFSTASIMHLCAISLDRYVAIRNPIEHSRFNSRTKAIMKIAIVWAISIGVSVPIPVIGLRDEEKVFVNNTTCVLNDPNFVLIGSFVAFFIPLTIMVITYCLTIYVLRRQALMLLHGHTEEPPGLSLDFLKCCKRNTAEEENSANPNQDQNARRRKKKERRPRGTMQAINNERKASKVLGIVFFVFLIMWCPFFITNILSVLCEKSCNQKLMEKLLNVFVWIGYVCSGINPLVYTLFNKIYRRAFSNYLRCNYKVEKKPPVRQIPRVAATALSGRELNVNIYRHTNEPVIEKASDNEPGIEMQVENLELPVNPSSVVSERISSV
Kind of experiment: Serotonin 5-HT2C radioligand binding ([3H]Mesulergine). The essentials:
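Compounds tested at 1 μM or lower (1% DMSO vehicle) for displacement of 1 nM [3H]Mesulergine over 60 min at 25° C. Specific binding determined by filtration counting, with 1 μM Mianserin defining non-specific binding; values are percent inhibition.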

Experiment [3] concerns the target T2, human recombinant adrenergic α1D receptor (Homo sapiens, UniProt P25100).
T2 construct: expressed in transfected cells; host or cells: human embryonic kidney (HEK-293) cells
T2 sequence (P25100 1-572): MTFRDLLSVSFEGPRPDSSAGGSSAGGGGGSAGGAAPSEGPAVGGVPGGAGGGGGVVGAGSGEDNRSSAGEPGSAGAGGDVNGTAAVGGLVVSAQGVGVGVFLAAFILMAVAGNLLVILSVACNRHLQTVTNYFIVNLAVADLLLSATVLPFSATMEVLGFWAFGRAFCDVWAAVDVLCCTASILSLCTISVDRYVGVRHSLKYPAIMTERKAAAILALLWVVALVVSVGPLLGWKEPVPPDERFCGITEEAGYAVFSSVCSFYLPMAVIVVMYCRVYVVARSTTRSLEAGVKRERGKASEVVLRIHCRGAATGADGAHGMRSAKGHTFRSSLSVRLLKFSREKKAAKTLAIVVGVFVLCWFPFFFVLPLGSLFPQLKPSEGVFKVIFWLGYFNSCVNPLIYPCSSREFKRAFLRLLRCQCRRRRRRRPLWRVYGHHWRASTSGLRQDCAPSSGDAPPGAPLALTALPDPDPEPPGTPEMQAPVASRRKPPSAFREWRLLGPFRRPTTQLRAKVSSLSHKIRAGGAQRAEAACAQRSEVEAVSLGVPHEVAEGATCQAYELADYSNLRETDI
Nature of the experiment: Adrenergic α1D radioligand binding ([3H]Prozosin). To be noted: compound at 1 μM. The method, then:
Compounds of invention were incubated with 0.6 nM [^3H]Prozosin for 60 min. at 25° C. Non-specific binding was estimated in the presence of 10 μM phentolamine. Receptor proteins were filtered and washed, the filters were then counted to determine [^3H]Prozosin specifically bound. Compounds were screened at 1 μM or lower, using 1% DMSO as vehicle. Biochemical assay results are presented as the percent inhibition of specific binding in Table 9.

Experiment [4] concerns the target T3, human recombinant serotonin (5-Hydroxytryptamine) 5-HT2A receptor (Homo sapiens, UniProt P28223).
T3 construct: expressed in transfected cells; host or cells: Chinese hamster ovary (CHO-K1) cells
Kind of experiment: Serotonin 5-HT2A radioligand binding ([3H]Ketanserin). To be noted: for inhibition at 1 µM: read-out: Inhibition of ligand binding, Serotonin 5-HT2A (percent inhibition of specific binding), compound at 1 μM. The method, then:
Compounds of the invention were incubated with 0.5 nM [^3H]Ketanserin for 60 min. at 25° C. Non-specific binding was estimated in the presence of 1 μM Mianserin. Receptor proteins were filtered and washed, the filters were then counted to determine [^3H]Ketanserin specifically bound.

Setting [5] is: percent inhibition of specific binding, read-out: Inhibition of ligand binding, Dopamine D2L.
Setting [6] is: compound at 1 μM, read-out: Inhibition of ligand binding, Serotonin 5-HT2C (percent inhibition of specific binding).
Setting [7] is: percent inhibition of specific binding, read-out: Inhibition of ligand binding, Adrenergic α1D.
The mark [8] stands for this setting: percent inhibition of specific binding.
[9] abbreviates: […] [3H]Spiperone, read-out: Inhibition of ligand binding, Dopamine D2L (percent inhibition of specific binding).
Where [10] appears, read: read-out: Inhibition of ligand binding, Adrenergic α1D (percent inhibition of specific binding).

Where two headings read alike, the source gives them in different places.

Chain of human dopamine D2L receptor (P14416 whole entry): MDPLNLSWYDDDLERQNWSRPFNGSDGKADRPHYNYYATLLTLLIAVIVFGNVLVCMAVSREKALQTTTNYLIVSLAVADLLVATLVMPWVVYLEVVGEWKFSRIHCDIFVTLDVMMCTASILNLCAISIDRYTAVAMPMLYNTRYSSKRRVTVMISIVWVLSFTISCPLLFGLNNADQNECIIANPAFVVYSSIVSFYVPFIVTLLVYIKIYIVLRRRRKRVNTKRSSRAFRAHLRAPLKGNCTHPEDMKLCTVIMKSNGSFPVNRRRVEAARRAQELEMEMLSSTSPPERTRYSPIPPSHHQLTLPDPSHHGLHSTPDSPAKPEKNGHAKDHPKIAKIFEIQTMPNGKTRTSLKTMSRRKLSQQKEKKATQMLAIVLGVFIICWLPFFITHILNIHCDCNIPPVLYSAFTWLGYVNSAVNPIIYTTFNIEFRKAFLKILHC
T3 sequence (P28223 whole entry): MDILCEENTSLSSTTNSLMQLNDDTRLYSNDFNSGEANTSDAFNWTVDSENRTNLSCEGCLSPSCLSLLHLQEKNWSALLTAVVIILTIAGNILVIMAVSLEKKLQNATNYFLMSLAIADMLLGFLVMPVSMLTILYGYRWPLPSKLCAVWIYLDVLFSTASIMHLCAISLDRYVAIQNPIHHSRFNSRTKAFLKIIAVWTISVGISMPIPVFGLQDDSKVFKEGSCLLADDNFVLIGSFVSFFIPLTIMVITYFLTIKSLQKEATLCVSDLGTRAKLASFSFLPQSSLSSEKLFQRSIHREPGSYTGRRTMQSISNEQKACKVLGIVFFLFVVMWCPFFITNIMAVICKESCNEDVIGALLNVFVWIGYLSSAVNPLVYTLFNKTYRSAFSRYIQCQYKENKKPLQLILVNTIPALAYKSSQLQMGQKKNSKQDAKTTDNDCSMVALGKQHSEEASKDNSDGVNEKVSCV
Chain of histamine receptor H1 (P35367 whole entry): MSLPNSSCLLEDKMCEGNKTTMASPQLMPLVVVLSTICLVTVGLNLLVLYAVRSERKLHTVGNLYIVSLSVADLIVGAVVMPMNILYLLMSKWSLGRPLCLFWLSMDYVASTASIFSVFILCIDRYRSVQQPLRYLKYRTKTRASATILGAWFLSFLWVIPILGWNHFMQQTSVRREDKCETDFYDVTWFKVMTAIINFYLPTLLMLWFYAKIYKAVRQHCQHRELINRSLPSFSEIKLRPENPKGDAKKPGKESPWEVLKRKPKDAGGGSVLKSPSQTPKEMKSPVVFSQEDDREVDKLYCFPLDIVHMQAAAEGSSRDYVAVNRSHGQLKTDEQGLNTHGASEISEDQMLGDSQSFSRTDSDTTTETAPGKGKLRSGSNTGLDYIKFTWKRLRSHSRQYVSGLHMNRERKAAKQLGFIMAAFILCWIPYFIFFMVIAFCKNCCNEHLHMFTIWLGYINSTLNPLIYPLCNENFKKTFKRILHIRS

`Cc1ccc2c(c1)c1c(n2CC(C)(O)c2ccc(C)nc2)CCN(C)C1` (centres unmarked) [Compound 52, 1-(1,2,3,4-tetrahydro-2,8-dimethylpyrido[4,3-b]indol-5-yl)-2-(6-methylpyridin-3-yl)propan-2-ol]: the inhibition at 1 µM on histamine receptor H1 stood at 46%; in experiment [1] (setting [5]) it was 12%; in experiment [2] (setting [6]) it was 87%; in experiment [3] (setting [7]), 39%; in experiment [4], 83%.
Regarding `C/C(=C\n1c2c(c3ccccc31)CN(C)CC2)c1ccc(F)cc1` [Compound 205, (E)-5-(2-(4-fluorophenyl)prop-1-enyl)-2-methyl-2,3,4,5-tetrahydro-1H-pyrido[4,3-b]indole], on histamine receptor H1, the “Histamine Binding (1 μM) H1, percent inhibition of specific binding” value stood at 39%. The inhibition at 1 µM worked out at 31% on histamine receptor H1; 98% in experiment [1] (setting [5]); 100% in experiment [2] (setting [6]); 90% in experiment [3] (setting [7]); 97% in experiment [4]. Besides, in experiment [1] (setting [8]), the “Inhibition of ligand binding, Dopamine D2L” value was 99%. Besides, the inhibition at 0.1 µM in experiment [2] (compound at 0.1 μM, read-out: Inhibition of ligand binding, Serotonin 5-HT2C (percent inhibition of specific binding)) was determined as 96%; in experiment [4] (read-out: Inhibition of ligand binding, Serotonin 5-HT2A (percent inhibition of specific binding), compound at 0.1 μM), 104%.
As to `CN1CCc2c(c3cc(Cl)ccc3n2CC(O)(c2ccc(F)cc2)C2CCC2)C1` (centres unmarked) [Compound 177, 2-(8-chloro-2-methyl-3,4-dihydro-1H-pyrido[4,3-b]indol-5(2H)-yl)-1-cyclobutyl-1-(4-fluorophenyl)ethanol], the inhibition at 1 µM at histamine receptor H1 turned out to be 83%; in experiment [1] (setting [5]) it was 33%; in experiment [2] (setting [6]), 95%; in experiment [3] (setting [7]), 70%; in experiment [4], 97%.
Regarding `CN1CCc2c(c3cc(Cl)ccc3n2C/C(=C/CCO)c2ccc(F)cc2)C1` [Compound No. 349, (E)-5-(8-chloro-2-methyl-3,4-dihydro-1H-pyrido[4,3-b]indol-5(2H)-yl)-4-(4-fluorophenyl)pent-3-en-1-ol], at histamine receptor H1, the “Histamine Binding (1 μM) H1, percent inhibition of specific binding” value was 65%. In addition, the inhibition at 1 µM on histamine receptor H1 was determined as 53%; in experiment [1] (setting [5]), 34%; in experiment [2] (setting [6]) it was 96%; in experiment [3] (setting [7]), 60%; in experiment [4], 97%. In addition, the “Inhibition of ligand binding, Dopamine D2L” value in experiment [1] (setting [8]) turned out to be 46%. Further, the “Inhibition of ligand binding, Serotonin 5-HT2C (percent inhibition of specific binding)” value in experiment [2] (compound at 1 μM, 1 µM) is listed as 98%. Besides, the “Inhibition of ligand binding, Serotonin 5-HT2A (percent inhibition of specific binding)” value in experiment [4] (compound at 1 μM, 1 µM) was 100%.
As to `C/C(=C/n1c2c(c3cc(Cl)ccc31)CN(C)CC2)c1ccccc1F` [Compound 212, (Z)-8-chloro-5-(2-(2-fluorophenyl)prop-1-enyl)-2-methyl-2,3,4,5-tetrahydro-1H-pyrido[4,3-b]indole], the inhibition at 1 µM was found to be 70% at histamine receptor H1; 32% in experiment [1] (setting [5]); 104% in experiment [2] (setting [6]); 78% in experiment [3] (setting [7]); 91% in experiment [4].
As for `Cc1ccc2c(c1)c1c(n2C#Cc2ccc(Cl)cc2)CCN(C)C1` [Compound No. 481, 5-((4-chlorophenyl)ethynyl)-2,8-dimethyl-2,3,4,5-tetrahydro-1H-pyrido[4,3-b]indole], the inhibition at 1 µM on histamine receptor H1 is 12%; in experiment [1] (setting [9]), 24%; in experiment [2] (setting [6]), 104%; in experiment [3] (setting [10]), 77%; in experiment [4], 101%.
As for `C=C(Cn1c2c(c3cc(C)ccc31)CN(C)CC2)c1ccc(F)cc1` [Compound 132, 5-(2-(4-fluorophenyl)allyl)-2,3,4,5-tetrahydro-2,8-dimethyl-1H-pyrido[4,3-b]indole], the inhibition at 1 µM at histamine receptor H1 turned out to be 96%; in experiment [1] (setting [5]), 91%; in experiment [2] (setting [6]) it was 96%; in experiment [3] (setting [7]), 93%; in experiment [4], 100%.
For the compound `Cc1ccc2c(c1)c1c(n2C/C(=C/C(=O)O)c2ccc(F)cc2)CCN(C)C1` [Compound No. 352, (E)-4-(2,8-dimethyl-3,4-dihydro-1H-pyrido[4,3-b]indol-5(2H)-yl)-3-(4-fluorophenyl)but-2-enoic acid], the inhibition at 1 µM on histamine receptor H1 was found to be 4%; in experiment [1] (setting [9]), 0%; in experiment [2] (setting [6]) it was 93%; in experiment [3] (setting [10]), 11%; in experiment [4], 84%.
As to `Cc1ccc(C(C)(O)Cn2c3c(c4cc(Cl)ccc42)CN(C)CC3)cn1` (centres unmarked) [Compound 47, 1-(8-chloro-1,2,3,4-tetrahydro-2-methylpyrido[4,3-b]indol-5-yl)-2-(6-methylpyridin-3-yl)propan-2-ol], the inhibition at 1 µM at histamine receptor H1 was found to be 33%; in experiment [1] (setting [5]), 7%; in experiment [2] (setting [6]) it was 81%; in experiment [3] (setting [7]), 82%; in experiment [4] it was 84%.
In the case of `CN1CCc2c(c3cc(C(=O)O)ccc3n2C#Cc2ccc(F)cc2)C1` [Compound No. 482, 5-((4-fluorophenyl)ethynyl)-2-methyl-2,3,4,5-tetrahydro-1H-pyrido[4,3-b]indole-8-carboxylic acid], the inhibition at 1 µM on histamine receptor H1 was 13%; in experiment [1] (setting [9]) it was -2%; in experiment [2] (setting [6]) it was -12%; in experiment [3] (setting [10]), 21%; in experiment [4], -8%.
For `Cc1ccc2c(c1)c1c(n2C#Cc2ccc(C)nc2)CCN(C)C1` [Compound No. 476, 2,8-dimethyl-5-((6-methylpyridin-3-yl)ethynyl)-2,3,4,5-tetrahydro-1H-pyrido[4,3-b]indole], in that order: 27%, 19%, 95%, 95% and 100%.
For `CN1CCc2c(c3cc(Cl)ccc3n2/C=C(/c2ccc(F)cc2)C2CCC2)C1` [Compound 206, (E)-8-chloro-5-(2-cyclobutyl-2-(4-fluorophenyl)vinyl)-2-methyl-2,3,4,5-tetrahydro-1H-pyrido[4,3-b]indole], the inhibition at 1 µM on histamine receptor H1 is 76%; in experiment [1] (setting [5]) it was 76%; in experiment [2] (setting [6]), 98%; in experiment [3] (setting [7]), 102%; in experiment [4] it was 98%.
